The values that follow are results of earlier work, collected in PMC9667546, “Selective Inhibition of Bruton’s Tyrosine Kinase by a Designed Covalent Ligand Leads to Potent Therapeutic Efficacy in Blood Cancers Relative to Clinically Used Inhibitors” (ACS Pharmacology & Translational Science, 2022).

A word on the pIC50: it is −log10 of the IC50, conventionally taken in molar units.

One data set addresses T1, TEC (Homo sapiens, UniProt P42680).
T1 construct: host or cells: HEK296T (so in the source)
T1 sequence (P42680 1-631): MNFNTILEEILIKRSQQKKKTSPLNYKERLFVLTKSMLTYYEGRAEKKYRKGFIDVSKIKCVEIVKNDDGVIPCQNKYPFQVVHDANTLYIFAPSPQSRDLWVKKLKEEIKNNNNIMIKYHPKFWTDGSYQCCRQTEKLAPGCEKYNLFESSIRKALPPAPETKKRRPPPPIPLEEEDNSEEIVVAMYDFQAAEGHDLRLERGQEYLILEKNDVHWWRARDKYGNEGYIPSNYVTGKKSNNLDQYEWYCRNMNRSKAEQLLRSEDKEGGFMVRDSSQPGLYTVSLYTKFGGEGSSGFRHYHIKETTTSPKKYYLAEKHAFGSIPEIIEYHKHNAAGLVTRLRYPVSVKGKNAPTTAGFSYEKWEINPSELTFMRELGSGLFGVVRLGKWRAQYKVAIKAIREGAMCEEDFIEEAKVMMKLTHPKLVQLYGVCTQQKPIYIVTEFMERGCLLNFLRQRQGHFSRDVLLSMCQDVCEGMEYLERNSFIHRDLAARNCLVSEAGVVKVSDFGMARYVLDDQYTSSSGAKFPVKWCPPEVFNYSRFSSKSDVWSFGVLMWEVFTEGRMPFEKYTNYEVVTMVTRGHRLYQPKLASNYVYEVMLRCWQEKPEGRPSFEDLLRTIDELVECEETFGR
To be noted: Table S3 heat map; ref SI 1-19; cited from earlier work.

For another data set, the target named is BTK (Homo sapiens, UniProt Q06187). Set-up: purchased Promega Corporation V2941. To be noted: Table S3 heat map; ref SI 1-19; read-out: IC50, BTK; cited from earlier work.
BTK, sequence (Q06187 whole entry): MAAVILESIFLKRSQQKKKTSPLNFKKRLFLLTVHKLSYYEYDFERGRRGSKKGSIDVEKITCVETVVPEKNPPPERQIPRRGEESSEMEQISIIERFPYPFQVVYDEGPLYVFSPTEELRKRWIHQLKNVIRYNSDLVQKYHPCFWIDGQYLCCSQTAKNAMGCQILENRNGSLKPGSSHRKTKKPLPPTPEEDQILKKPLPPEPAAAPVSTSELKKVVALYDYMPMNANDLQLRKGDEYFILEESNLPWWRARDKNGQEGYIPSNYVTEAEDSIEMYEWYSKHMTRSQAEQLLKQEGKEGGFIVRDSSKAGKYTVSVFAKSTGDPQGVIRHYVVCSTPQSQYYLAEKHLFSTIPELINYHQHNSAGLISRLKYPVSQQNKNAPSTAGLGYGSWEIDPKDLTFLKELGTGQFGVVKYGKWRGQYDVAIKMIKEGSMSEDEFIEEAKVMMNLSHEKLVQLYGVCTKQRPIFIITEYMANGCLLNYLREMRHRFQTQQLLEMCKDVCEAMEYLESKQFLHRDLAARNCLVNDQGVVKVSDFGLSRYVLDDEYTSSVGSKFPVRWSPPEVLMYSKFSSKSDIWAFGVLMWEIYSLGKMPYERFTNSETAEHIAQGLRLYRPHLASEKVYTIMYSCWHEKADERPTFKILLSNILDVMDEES
A further data set deals with Her2. To be noted: read-out: IC50, Her2; Table S3 heat map; ref SI 1-19; cited from earlier work.
A further data set has as its target T2, ITK (Homo sapiens, UniProt Q08881).
T2 construct: host or cells: HEK296T (so in the source)
T2 sequence (Q08881 1-620): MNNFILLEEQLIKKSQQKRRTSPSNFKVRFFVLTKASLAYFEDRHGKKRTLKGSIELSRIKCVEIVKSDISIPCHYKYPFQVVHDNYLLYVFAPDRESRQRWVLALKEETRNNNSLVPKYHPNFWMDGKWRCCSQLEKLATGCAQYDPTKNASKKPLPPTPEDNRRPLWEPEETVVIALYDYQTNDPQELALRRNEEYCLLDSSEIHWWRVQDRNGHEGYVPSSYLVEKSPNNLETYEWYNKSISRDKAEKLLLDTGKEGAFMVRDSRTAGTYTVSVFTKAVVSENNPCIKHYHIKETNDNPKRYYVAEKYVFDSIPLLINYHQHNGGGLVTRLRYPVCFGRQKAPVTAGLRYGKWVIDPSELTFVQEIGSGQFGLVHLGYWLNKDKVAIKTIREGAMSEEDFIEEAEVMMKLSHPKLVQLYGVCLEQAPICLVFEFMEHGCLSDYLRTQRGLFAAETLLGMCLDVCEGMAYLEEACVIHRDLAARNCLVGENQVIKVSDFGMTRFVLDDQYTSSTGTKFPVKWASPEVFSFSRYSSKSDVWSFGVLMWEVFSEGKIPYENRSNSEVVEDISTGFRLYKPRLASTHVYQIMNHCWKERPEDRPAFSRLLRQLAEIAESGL
Conditions: Table S3 heat map; ref SI 1-19; cited from earlier work.

The target in the next data set is T3, EGFR (Homo sapiens, UniProt P00533).
T3 construct: host or cells: HEK296T (so in the source)
T3 sequence (P00533 25-1210): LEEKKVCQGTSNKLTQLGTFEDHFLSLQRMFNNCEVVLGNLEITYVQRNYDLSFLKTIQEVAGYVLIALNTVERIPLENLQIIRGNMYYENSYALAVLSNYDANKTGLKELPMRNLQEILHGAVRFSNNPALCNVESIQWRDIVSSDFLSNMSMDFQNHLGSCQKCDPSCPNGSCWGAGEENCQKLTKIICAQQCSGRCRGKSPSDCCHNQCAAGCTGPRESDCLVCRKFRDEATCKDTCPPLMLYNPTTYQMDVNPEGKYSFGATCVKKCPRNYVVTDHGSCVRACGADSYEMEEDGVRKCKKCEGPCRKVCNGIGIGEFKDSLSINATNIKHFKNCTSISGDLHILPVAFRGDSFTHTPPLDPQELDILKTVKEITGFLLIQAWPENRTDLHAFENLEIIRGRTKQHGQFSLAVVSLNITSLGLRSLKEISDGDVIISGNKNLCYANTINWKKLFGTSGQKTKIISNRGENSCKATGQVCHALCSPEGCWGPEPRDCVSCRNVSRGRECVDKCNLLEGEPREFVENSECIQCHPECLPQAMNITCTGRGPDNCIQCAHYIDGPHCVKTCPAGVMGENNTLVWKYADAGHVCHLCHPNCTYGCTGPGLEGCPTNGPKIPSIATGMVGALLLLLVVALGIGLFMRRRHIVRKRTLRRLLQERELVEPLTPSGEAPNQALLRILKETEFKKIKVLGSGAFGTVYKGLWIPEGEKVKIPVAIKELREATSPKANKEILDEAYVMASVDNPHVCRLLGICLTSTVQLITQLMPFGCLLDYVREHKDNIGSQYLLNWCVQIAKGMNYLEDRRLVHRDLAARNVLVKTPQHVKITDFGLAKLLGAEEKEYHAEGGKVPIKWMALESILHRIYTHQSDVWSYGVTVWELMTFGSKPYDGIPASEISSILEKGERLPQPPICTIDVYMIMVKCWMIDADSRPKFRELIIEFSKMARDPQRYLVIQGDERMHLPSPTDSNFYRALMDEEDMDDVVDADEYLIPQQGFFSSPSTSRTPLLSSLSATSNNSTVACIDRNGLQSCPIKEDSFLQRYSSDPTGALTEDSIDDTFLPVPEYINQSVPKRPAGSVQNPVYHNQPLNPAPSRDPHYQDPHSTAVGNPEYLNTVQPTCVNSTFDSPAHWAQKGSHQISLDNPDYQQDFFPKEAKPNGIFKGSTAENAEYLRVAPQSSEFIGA
To be noted: Table S3 heat map; ref SI 1-19; cited from earlier work.

The target of another data set is T4, TXK (Homo sapiens, UniProt P42681).
T4 construct: host or cells: HEK296T (so in the source)
T4 sequence (P42681 1-527): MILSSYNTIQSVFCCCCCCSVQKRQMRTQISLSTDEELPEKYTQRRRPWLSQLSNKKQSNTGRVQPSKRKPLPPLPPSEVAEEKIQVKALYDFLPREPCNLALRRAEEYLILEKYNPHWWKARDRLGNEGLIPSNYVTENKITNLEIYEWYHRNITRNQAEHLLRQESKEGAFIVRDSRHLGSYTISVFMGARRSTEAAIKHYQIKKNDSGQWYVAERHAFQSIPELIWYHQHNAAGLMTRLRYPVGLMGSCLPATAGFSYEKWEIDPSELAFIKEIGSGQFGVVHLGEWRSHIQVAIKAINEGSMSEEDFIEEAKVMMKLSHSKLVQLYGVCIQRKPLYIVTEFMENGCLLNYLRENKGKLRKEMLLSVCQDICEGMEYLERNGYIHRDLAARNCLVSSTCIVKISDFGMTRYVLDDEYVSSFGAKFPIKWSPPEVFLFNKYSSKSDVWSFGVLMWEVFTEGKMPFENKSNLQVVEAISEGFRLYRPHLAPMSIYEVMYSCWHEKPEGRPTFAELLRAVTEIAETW
Conditions: Table S3 heat map; ref SI 1-19; cited from earlier work.

In another data set the target is T5, JAK3 (Homo sapiens, UniProt P52333).
T5 construct: host or cells: HEK296T (so in the source)
T5 sequence (P52333 whole entry): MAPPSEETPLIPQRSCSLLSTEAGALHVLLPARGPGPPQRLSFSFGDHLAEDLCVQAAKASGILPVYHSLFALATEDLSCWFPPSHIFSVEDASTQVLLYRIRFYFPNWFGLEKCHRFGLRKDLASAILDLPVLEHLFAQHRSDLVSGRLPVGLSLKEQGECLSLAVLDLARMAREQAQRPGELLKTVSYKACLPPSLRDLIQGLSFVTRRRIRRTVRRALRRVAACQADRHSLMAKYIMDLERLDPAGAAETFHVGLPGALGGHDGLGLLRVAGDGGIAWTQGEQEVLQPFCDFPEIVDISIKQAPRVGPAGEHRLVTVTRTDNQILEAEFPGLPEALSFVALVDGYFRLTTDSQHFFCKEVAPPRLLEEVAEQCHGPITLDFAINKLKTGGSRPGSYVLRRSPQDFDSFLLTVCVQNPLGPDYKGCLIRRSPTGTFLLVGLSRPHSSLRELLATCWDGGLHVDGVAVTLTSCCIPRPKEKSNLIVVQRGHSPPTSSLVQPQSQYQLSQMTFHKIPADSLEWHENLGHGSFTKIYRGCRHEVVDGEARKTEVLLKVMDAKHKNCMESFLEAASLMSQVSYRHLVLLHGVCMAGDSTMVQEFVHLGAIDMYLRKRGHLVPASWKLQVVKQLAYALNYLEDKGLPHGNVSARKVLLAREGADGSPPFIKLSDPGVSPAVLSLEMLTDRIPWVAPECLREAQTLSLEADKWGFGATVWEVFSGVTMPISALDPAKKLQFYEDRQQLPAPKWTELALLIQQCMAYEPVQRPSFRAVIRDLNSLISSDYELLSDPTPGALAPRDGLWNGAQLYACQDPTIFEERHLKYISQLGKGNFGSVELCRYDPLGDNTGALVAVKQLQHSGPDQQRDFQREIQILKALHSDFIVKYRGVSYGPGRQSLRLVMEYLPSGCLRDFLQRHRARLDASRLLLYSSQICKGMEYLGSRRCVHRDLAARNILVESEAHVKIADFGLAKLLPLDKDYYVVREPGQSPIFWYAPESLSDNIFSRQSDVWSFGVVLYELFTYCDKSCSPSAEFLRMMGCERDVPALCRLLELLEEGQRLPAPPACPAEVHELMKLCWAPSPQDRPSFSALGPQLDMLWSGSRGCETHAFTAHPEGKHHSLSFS
Conditions: Table S3 heat map; ref SI 1-19; cited from earlier work.

pIC50: −log10 of the molar value.

For the compound `CC#CC(=O)N1CC[C@@H](n2cc(-c3ccc(Oc4c(F)cccc4F)cc3)c3c(N)n[nH]c(=O)c32)C1` [TG-1701], the pIC50 at TEC was 8.40; on BTK it was 8.52; in the data set with Her2, under 5.52; at ITK, under 5.52; at EGFR, 6.57; on TXK it was 6.87. Further, the pIC50 on JAK3 was under 5.52.
